Values quoted from earlier work in patent US20040171518A1, “Compounds for protein stabilization and methods for their use” (Medtronic MiniMed, Inc., priority 2003, published 2004).
Where two headings read alike, the source gives them in different places.

SMILES: O=C(O)CCC(=O)NCCCCC1NC(=O)C(CCCCNC(=O)CCC(=O)O)NC1=O (centres unmarked) [2,5-diketo-3,6-di(4-succinylaminobutyl)piperazine]
- solubility (acidic aqueous solutions): quite insoluble
- solubility (weakly alkaline aqueous solution): readily soluble
